Assay results reported in US6516214B1, “Detection of stroke events using diffuse optical tomography” (The General Hospital Corporation, priority 2000, dated 2003).

Assay: Monitoring cerebral blood flow in an adult human by DOT after an indocyanine green bolus
Format: in vivo
Source text: A 100 mW, 808 nm laser diode coupled to a 1 mm diameter fused silica fiber was used to deliver light to an adult human head. Four diode detectors were coupled to the scalp via 3 mm diameter plastic fibers. The collecting fibers were positioned 1, 2, 3, and 4 cm from the emitting fiber. These four separations were chosen to discriminate between scalp signals and […]. Measurements made at 1 and 2 cm separations were sensitive to changes in the optical properties of only the skull and scalp. On the other hand, measurements made at 3 and 4 cm separations were sensitive to changes in the optical properties of the brain, skull, and scalp. The remitted intensity at the four positions was sampled at 4 Hz. Baseline data was collected for 10 seconds, followed by the bolus injection. The bolus consisted of a 2 ml saline solution of 40 mg of indocyanine green injected into a vein in the arm of the volunteer. This injection was immediately followed by a 10 ml saline flush.
The data is summarized in the graph of FIG. 15, showing the attenuation of the optical signal caused by passing of the bolus of indocyanine green through the brain of the adult human volunteer. […] The small increases in each signal at about 34 seconds resulted from the re-circulation of the indocyanine green bolus.

What does the source list for CC1(C)C(/C=C/C=C/C=C/C=C2\N(CCCCS(=O)(=O)O)c3ccc4ccccc4c3C2(C)C)=[N+](CCCCS(=O)(=O)[O-])c2ccc3ccccc3c21 [indocyanine green]?
delay of the drop in the signals relative to 3 and 4 cm separations (1 and 2 cm optode separations (scalp and skull only)): about 2 seconds; time following injection of the dye bolus at which the signal dropped significantly (3 and 4 cm optode separations, 40 mg in 2 ml saline i.v. in the arm, 808 nm): 20 s; time of small signal increases from re-circulation of the bolus (each signal, all separations): about 34 seconds; concentration of second passage bolus, times smaller than the first passage bolus (re-circulation): about 10 times
